ChEMBL document CHEMBL1201862, “PubChem BioAssay data set” (2004)
Active and inactive are the calls of the source.

Assays:
[1] = molecular target: T1, Short transient receptor potential channel 4 (Mus musculus, UniProt Q9QUQ5); assay: mouse TRPC4 channel inhibitors, dose response, cell-based, HEK293 TRPC4/mu-opioid, Fluo-4 calcium (AID 434942); format: functional;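 note: potency of inhibitors blocking the TRPC4 calcium response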
T1 sequence (Q9QUQ5 whole entry): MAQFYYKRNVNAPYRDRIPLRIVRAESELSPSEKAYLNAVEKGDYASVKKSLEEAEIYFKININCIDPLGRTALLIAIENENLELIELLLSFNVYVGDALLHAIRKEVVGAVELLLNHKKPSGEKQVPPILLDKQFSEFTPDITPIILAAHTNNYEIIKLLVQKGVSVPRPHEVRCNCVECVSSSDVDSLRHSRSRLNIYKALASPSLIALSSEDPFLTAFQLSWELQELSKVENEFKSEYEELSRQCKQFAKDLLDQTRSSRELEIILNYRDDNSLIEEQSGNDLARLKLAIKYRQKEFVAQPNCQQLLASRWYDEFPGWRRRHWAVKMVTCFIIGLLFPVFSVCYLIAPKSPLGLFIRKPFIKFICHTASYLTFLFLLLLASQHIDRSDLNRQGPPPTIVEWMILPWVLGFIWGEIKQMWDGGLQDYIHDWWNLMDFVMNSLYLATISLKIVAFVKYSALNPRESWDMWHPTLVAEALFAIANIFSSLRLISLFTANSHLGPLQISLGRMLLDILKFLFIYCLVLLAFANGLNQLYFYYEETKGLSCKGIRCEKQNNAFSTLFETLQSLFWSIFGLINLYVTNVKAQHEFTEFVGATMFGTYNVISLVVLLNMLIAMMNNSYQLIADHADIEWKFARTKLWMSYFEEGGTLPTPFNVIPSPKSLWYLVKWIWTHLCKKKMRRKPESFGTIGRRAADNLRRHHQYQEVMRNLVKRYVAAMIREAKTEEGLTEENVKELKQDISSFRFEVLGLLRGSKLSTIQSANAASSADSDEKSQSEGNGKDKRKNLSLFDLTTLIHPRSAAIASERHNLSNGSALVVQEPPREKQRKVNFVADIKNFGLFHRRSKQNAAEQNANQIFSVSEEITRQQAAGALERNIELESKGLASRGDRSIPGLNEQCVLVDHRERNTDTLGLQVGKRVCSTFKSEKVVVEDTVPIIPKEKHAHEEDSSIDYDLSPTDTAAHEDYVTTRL

[2] = HEp-2 cell cytotoxicity, dose response, cytotoxicity control for RSV inhibitor project, HTS (AID 2410); format: functional; settings: human respiratory syncytial virus
[3] = molecular target: DNA dC->dU-editing enzyme APOBEC-3G (Homo sapiens, UniProt Q9HC16); assay: Dose Response confirmation of small molecule APOBEC3G DNA Deaminase Inhibitors via a fluorescence-based single-stranded DNA deaminase assay. [Related pubchem assays (depositor defined):AID493012, AID493028]; format: functional
[4] = molecular target: DNA dC->dU-editing enzyme APOBEC-3A (Homo sapiens, UniProt P31941); assay: APOBEC3A DNA deaminase inhibitors, dose response, biochemical (AID 504722); format: functional
SUMO-activating enzyme = SUMO-activating enzyme (Homo sapiens, UniProt Q9UBT2); assay: SUMOylation inhibitor hit validation, confirmation, SUMOylation inhibitor project, biochemical, AlphaScreen (AID 2018); format: functional
Trypsin = Trypsin (Sus scrofa, UniProt P00761); assay: porcine trypsin inhibitors, dose response, selectivity assay for Rce1 protease inhibitor project, biochemical, quenched peptide fluorescence, cherry-pick (AID 488789)
CAAX prenyl protease 2 = molecular target: T2, CAAX prenyl protease 2 (Saccharomyces cerevisiae S288c, UniProt Q03530); format: biochemical
T2 sequence (Q03530 whole entry): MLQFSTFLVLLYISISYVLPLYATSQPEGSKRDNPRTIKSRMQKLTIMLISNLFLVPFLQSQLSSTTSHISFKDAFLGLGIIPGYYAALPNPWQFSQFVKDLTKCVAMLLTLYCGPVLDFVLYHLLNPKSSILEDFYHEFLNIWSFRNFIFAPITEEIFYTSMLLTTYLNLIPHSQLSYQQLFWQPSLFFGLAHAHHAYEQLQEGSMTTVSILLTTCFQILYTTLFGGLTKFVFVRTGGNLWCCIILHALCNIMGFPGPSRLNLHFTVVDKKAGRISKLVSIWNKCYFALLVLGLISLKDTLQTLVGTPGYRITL

[5] = molecular target: T3, Carboxy-terminal domain RNA polymerase II polypeptide A small phosphatase 1 (Homo sapiens, UniProt Q9GZU7); assay: inhibitors of CTDSP1, concentration-response testing, biochemical assay, absorbance-based, actives from ultra-high-throughput screening (AID 540297); format: functional
T3 sequence (Q9GZU7 whole entry): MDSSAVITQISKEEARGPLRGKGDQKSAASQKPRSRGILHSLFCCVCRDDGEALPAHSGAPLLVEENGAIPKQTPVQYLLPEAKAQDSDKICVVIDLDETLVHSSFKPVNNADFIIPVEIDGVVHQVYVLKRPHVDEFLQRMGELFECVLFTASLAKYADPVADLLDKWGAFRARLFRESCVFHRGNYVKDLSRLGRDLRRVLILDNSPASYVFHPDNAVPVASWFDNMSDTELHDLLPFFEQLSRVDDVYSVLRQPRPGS

Estrogen receptor = molecular target: T4, Estrogen receptor (Homo sapiens, UniProt P03372);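 note: potency for inhibiting coactivator peptide recruitment to the receptor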
T4 sequence (P03372 whole entry): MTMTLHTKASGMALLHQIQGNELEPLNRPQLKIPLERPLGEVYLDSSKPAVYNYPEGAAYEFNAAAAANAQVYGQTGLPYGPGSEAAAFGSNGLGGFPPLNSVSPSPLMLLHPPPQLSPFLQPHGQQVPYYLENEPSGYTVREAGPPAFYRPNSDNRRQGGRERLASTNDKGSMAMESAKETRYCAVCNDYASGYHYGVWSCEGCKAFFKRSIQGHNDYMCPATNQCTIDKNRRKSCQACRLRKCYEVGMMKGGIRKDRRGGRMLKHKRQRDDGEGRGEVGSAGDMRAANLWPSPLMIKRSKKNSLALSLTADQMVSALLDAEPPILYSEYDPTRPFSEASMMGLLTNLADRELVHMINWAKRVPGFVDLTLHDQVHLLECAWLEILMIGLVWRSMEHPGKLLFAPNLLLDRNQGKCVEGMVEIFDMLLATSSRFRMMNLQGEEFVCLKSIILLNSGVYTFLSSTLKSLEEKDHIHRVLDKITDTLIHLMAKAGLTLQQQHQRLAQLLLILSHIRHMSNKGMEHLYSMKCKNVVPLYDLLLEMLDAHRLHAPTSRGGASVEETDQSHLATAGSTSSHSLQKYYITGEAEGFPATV

Vero [6] = assay: cells; format: functional, cell-based; settings: Chlorocebus sabaeus
Vero [7] = assay: cells; format: functional; settings: Chlorocebus sabaeus
Streptokinase A = molecular target: T5, Streptokinase A (Streptococcus pyogenes serotype M1, UniProt P10520); assay: S. pyogenes streptokinase expression inhibitors, potency, dose response, plasminogen activation absorbance, OD405 (AID 1914); format: functional, Streptococcus pyogenes M1 GAS;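 note: secreted streptokinase activity via plasminogen activation per viability signal from cell pellet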
T5 sequence (P10520 whole entry): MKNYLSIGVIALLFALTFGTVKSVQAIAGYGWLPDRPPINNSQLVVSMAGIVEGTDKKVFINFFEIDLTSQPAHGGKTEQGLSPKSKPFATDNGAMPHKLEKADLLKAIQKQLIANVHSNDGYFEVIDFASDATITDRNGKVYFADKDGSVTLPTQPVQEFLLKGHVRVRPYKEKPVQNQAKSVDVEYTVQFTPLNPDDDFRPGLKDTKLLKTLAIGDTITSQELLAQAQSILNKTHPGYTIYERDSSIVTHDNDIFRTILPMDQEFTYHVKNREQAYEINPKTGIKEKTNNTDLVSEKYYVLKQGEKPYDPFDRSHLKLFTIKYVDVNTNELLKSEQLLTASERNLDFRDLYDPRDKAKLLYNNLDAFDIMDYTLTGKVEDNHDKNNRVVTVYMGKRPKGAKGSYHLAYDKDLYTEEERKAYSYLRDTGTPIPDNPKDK

cells = format: functional
Streptococcus = assay: Group A Streptococcus viability loss, dose response, counter-screen for streptokinase expression inhibitor project, luminescence, BacTiterGlo (AID 1915); format: functional, organism-based;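 note: potency for reduction of bacterial viability or growth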
[8] = Vero E6 cell cytotoxicity, dose response, cytotoxicity control for non-replicating M. tuberculosis project, secondary assay (AID 492998); format: functional, VeroE6; settings: Vero C1008
[9] = THP-1 cell cytotoxicity, dose response, cytotoxicity control for non-replicating M. tuberculosis project (AID 489025); format: functional
[10] = test system: Streptococcus sp. 'group A'; assay: growth inhibition of control SK(-) GAS strain, dose response, counter-screen for streptokinase expression inhibitor project, luminescence, kanamycin, BacTiterGlo, confirmation (AID 1900); format: functional, organism-based
[11] = cytotoxicity in HEK-293T cells, dose response, cytotoxicity control for TCR NF-kB inhibitor project, luminescence, T-cell screen hits (AID 489026); format: functional, cell-based;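 note: cells exposed to compound about 14 hours before the viability readout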
[12] = intracellular Trypanosoma cruzi inhibitors in host cells – cell-based, plate reader, cherry-pick samples, set 3, dose response (AID 651818); format: functional;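 note: compounds incubated with infected cells for about four days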
[13] = molecular target: T6, Rac GTPase-activating protein 1 (Homo sapiens, UniProt Q9H0H5); assay: MgcRacGAP GTPase-activating activity inhibitors, confirmation, biochemical, ADP Hunter fluorescence, primary and confirmatory (AID 624330); format: functional
T6 sequence (Q9H0H5 whole entry): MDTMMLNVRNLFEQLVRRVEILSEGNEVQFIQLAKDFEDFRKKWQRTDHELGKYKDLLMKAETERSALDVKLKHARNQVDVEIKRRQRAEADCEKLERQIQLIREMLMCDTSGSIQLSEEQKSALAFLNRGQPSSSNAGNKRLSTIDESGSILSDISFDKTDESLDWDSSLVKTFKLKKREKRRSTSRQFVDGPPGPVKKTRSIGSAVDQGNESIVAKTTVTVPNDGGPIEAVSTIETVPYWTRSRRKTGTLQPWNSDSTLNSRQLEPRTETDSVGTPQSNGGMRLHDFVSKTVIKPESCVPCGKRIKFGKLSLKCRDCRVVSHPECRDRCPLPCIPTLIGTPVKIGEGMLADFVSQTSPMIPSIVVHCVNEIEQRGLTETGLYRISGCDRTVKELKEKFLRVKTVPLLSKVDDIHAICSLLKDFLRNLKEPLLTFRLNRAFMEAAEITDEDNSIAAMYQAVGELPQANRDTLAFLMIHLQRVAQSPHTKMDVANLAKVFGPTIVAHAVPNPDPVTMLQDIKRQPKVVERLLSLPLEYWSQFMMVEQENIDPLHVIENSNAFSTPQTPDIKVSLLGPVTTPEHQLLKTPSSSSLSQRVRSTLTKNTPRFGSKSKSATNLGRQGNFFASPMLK

Chain of DNA dC->dU-editing enzyme APOBEC-3A (P31941 whole entry): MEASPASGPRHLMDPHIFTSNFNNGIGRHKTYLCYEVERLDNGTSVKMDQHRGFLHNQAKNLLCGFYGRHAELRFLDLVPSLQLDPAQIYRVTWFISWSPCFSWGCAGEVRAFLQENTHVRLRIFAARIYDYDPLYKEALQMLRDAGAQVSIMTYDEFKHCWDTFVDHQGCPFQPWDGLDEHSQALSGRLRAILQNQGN
Chain of DNA dC->dU-editing enzyme APOBEC-3G (Q9HC16 whole entry): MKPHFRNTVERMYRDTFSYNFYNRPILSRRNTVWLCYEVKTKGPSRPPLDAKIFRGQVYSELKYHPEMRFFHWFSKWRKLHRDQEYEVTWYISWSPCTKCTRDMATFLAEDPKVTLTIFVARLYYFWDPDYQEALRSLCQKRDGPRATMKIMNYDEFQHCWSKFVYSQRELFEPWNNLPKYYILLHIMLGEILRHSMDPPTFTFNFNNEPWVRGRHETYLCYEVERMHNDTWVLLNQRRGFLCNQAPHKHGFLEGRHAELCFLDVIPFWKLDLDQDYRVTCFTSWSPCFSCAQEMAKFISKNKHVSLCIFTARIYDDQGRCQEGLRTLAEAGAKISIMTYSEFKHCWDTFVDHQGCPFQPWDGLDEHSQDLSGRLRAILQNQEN
Chain of Trypsin (P00761 whole entry): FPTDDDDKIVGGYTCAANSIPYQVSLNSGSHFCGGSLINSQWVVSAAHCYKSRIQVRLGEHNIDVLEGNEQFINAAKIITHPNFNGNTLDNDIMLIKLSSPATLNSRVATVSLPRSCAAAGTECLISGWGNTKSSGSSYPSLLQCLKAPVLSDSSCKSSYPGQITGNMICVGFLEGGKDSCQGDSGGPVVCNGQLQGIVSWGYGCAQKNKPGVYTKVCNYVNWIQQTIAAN
Chain of SUMO-activating enzyme (Q9UBE0 whole entry): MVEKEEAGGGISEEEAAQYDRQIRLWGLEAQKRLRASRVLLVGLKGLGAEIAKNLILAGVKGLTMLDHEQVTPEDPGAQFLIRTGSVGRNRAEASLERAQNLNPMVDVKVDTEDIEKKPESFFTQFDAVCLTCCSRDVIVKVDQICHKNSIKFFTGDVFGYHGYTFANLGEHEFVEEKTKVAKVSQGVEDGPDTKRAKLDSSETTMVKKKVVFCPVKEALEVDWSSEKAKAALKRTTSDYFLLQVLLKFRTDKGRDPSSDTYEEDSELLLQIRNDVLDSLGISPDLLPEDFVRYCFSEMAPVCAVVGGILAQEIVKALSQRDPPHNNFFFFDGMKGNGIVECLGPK
Chain of SUMO-activating enzyme (Q9UBT2 whole entry): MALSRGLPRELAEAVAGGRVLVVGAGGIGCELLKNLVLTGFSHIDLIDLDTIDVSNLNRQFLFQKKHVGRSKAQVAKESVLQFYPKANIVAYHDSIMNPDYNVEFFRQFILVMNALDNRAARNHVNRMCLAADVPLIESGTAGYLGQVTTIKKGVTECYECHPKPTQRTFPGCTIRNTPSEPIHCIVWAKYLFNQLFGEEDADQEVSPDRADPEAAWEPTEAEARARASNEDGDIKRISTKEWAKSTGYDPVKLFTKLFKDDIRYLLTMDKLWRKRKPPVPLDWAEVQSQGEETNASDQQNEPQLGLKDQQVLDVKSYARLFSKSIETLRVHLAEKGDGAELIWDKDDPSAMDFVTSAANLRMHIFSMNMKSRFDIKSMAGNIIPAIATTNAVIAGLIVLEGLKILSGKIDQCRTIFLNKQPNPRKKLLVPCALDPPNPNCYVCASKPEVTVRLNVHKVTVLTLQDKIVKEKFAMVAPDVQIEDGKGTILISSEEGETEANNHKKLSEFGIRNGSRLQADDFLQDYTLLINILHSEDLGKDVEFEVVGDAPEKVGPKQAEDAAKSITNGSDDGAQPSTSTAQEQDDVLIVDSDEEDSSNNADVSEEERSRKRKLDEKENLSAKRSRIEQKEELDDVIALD

Clc1cccc(COn2c(-c3ccc(Cl)cc3Cl)nc3ncccc32)c1
EC50 [1]: 5.96 µM (active) | CC50 [2]: 14.4 µM (active)

Cc1cc(-c2nnc(S)n2-c2ccc(F)cc2)nn1C
IC50 [3]: 16.2 µM (active) | IC50 [4]: > 100 µM (inactive)

CCOc1cccc(CNCCO)c1OCc1ccc(Cl)cc1
EC50 [1]: 1.88 µM (active)

Nc1c(C(=O)Nc2ccc(Br)cc2)sc2nc(-c3ccco3)ccc12
IC50 (SUMO-activating enzyme): 22.8 µM (active)

Cc1c(Cc2ccccc2)c(=O)oc2c(C)c(OCC(=O)N3CCC(C(=O)O)CC3)ccc12
AC50 (Trypsin): 9.51 µM (active) | AC50 (CAAX prenyl protease 2): 10.7 µM (active)

O=C(Nc1ccc2nn(-c3ccccc3)nc2c1)c1ccc(Br)o1
IC50 [5]: 3.62 µM (active) | IC50 (Estrogen receptor): > 50 µM (not active)

COC(=O)C1=C(C)N(Cc2ccccc2)C(=S)N[C@H]1c1ccccc1
EC50 [1]: 5.96 µM (active)

O=c1c2ccccc2nc(/C=C/c2ccccc2O)n1-c1ccccc1O
IC50 (Vero [6]): > 25 µM (active) | CC50 [2]: 8.96 µM (active) | CC50 (Vero [7]): 20.4 µM (active)

COc1ccc(-c2nc(CC(=O)O)cs2)cc1OC
AC50 (Trypsin): 6.53 µM (active) | AC50 (CAAX prenyl protease 2): 29.7 µM (active)

Cc1ccc(CNC(=O)c2ccc([N+](=O)[O-])o2)cc1
EC50 (Streptokinase A): 8.63 µM (active) | IC50 (cells): 160 nM (active) | EC50 (Streptococcus): 32.1 µM (active) | CC50 [8]: 5.6 µM (active) | CC50 [9]: 25.5 µM (active) | EC50 [10]: 2.42 µM (active)

CCOc1ccc(S(=O)(=O)NCc2ccccn2)cc1NC(=O)c1ccccc1
IC50 [11]: > 80 µM (inactive)

CCOC(=O)c1ccccc1NS(=O)(=O)c1ccc(OCC)cc1
IC50 [11]: > 80 µM (inactive)

CC(NC(=O)OC(C)(C)C)C(=O)Oc1ccc2ccc(=O)oc2c1 (centres undefined)
IC50 (SUMO-activating enzyme): > 100 µM (inactive)

C=CCn1c(-c2ccc([N+](=O)[O-])cc2)n[nH]c1=S
IC50 [3]: 4.51 µM (active) | IC50 [4]: > 100 µM (inactive)

CC(OC(=O)CNC(=O)c1ccccc1F)C(=O)Nc1nc(-c2ccccc2)cs1 (centres undefined)
EC50 [1]: 1.5 µM (active)

CC(=O)/C(C#N)=C1\NC(=O)C(Cc2ccc(C)c(Cl)c2)S1 (centres undefined)
IC50 (Vero [6]): 6.72 µM (active) | CC50 (Vero [7]): 20.6 µM (active)

C[C@H](CO)N1C[C@H](C)[C@@H](CN(C)S(=O)(=O)c2ccc(Cl)cc2)Oc2c(NC(=O)Nc3ccccc3)cccc2C1=O
AC50 [12]: 6.84 µM (active)

C[C@@H]1CN([C@@H](C)CO)C(=O)c2cccc(NC(=O)Nc3ccc(C(F)(F)F)cc3)c2O[C@H]1CN(C)S(=O)(=O)c1cccs1
AC50 [12]: 4.64 µM (active)

C[C@@H]1CCCCO[C@@H](CN(C)CC2CCCCC2)[C@@H](C)CN([C@H](C)CO)C(=O)c2cc(NC(=O)Nc3cccc4ccccc34)ccc2O1
AC50 [12]: 0.757 µM (active)

Cc1ccc(S(=O)(=O)Nc2ccc3c(c2)CC(=O)N([C@H](C)CO)C[C@@H](C)[C@H](CN(C)Cc2ccccc2)O3)cc1
AC50 [12]: 1.79 µM (active)

Cc1cc(-c2nnc(S)n2/N=C/c2sccc2C)[nH]n1
IC50 [13]: 74.9 µM (active) | IC50 [3]: 2.44 µM (active) | IC50 [4]: > 100 µM (inactive)

Sc1nnc(COc2ccccc2)n1/N=C/c1ccco1
IC50 [3]: 3.38 µM (active) | IC50 [4]: > 100 µM (inactive)
